Among the data in patent publication US12492188B2, “1H-benzo[D]imidazole derivatives as TLR9 inhibitors for the treatment of fibrosis” (BRISTOL-MYERS SQUIBB COMPANY, priority 2020, dated 2025) are IC50 values, retold here.

Read-outs that look alike come from different tables or passages of the source.

What all share (type): cell-based
One test concerns the target T1, human TLR9 (Homo sapiens, UniProt Q9NR96).
T1 construct: host or cells: HEK-Blue cells (HEK293-derived reporter line)
T1 sequence (Q9NR96 26-1032): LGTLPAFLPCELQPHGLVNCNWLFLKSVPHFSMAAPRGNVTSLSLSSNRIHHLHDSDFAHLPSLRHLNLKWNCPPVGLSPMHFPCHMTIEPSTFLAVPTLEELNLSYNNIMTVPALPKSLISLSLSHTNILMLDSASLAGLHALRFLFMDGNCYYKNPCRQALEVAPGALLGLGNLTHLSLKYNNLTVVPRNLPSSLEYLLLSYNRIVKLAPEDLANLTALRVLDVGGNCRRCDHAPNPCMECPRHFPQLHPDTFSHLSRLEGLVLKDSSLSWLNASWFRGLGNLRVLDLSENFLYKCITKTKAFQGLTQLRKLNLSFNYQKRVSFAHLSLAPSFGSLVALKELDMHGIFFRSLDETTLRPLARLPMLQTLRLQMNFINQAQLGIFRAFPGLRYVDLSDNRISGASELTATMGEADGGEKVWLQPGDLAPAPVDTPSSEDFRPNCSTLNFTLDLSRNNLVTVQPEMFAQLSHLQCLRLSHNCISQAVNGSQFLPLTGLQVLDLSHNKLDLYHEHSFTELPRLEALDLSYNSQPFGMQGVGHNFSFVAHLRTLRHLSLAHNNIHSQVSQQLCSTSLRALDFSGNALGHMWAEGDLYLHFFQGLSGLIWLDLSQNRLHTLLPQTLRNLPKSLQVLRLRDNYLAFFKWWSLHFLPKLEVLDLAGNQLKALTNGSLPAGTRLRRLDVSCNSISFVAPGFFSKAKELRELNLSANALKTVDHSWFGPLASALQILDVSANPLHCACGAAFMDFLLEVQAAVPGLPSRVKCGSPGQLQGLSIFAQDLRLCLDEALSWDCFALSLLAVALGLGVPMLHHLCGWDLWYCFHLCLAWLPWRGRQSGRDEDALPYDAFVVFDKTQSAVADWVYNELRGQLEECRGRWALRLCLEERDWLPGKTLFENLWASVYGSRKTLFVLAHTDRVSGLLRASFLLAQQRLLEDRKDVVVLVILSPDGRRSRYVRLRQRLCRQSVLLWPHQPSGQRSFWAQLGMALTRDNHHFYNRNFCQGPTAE
In words: TLR9 inhibition reporter assay (HEK-Blue cells, secreted embryonic alkaline phosphatase reporter). The method, boiled down:
(§1)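 Cells seeded at 15000 (TLR7), 20,000 (TLR8) or 25,000 (TLR9) per well; compound 0.05 nM–50 μM, 30 min RT pre-incubation. Agonists: gardiquimod 7.5 μM, R848 15.9 μM, ODN2006 5 nM respectively. 22 h, 37 °C; SEAP via HEK-Blue Detection; % inhibition vs agonist+DMSO and known-inhibitor wells.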

The next test addresses T2, human TLR8 (Homo sapiens, UniProt Q9NR97).
T2 construct: host or cells: HEK-Blue cells (HEK293-derived reporter line)
T2 sequence (Q9NR97 27-1041): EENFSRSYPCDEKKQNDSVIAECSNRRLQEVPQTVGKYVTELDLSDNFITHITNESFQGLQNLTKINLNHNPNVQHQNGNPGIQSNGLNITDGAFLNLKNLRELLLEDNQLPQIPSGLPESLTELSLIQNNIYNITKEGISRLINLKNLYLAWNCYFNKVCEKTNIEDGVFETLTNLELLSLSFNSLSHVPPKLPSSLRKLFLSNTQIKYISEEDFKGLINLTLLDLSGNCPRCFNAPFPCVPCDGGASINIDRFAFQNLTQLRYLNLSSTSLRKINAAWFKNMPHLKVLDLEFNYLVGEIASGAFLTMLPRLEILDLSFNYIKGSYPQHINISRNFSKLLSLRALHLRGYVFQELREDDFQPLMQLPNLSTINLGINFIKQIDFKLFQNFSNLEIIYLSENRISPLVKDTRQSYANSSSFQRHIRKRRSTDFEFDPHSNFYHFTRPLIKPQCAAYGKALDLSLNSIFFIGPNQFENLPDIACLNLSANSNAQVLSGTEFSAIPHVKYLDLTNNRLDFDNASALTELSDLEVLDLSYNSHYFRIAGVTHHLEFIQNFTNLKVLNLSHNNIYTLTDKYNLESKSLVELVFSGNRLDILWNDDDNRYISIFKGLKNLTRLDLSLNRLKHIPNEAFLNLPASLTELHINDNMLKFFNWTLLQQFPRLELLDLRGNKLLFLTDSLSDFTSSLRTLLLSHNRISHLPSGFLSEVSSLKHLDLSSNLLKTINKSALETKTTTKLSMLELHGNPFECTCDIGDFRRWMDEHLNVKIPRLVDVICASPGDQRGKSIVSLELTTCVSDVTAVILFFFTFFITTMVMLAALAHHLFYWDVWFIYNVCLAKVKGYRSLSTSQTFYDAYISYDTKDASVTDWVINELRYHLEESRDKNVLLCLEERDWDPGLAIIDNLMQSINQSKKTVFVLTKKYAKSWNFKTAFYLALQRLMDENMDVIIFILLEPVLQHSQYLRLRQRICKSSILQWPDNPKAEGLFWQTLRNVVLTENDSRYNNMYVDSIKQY
Kind of test: TLR8 inhibition reporter assay (HEK-Blue cells, secreted embryonic alkaline phosphatase reporter). The following applies: HEK-Blue cells overexpressing human TLR8, stimulated with R848 15.9 μM; read-out: TLR 8 IC50. In outline:
as §1

The next test concerns the target T3, human TLR7 (Homo sapiens, UniProt Q9NYK1).
T3 construct: host or cells: HEK-Blue cells (HEK293-derived reporter line)
T3 sequence (Q9NYK1 27-1049): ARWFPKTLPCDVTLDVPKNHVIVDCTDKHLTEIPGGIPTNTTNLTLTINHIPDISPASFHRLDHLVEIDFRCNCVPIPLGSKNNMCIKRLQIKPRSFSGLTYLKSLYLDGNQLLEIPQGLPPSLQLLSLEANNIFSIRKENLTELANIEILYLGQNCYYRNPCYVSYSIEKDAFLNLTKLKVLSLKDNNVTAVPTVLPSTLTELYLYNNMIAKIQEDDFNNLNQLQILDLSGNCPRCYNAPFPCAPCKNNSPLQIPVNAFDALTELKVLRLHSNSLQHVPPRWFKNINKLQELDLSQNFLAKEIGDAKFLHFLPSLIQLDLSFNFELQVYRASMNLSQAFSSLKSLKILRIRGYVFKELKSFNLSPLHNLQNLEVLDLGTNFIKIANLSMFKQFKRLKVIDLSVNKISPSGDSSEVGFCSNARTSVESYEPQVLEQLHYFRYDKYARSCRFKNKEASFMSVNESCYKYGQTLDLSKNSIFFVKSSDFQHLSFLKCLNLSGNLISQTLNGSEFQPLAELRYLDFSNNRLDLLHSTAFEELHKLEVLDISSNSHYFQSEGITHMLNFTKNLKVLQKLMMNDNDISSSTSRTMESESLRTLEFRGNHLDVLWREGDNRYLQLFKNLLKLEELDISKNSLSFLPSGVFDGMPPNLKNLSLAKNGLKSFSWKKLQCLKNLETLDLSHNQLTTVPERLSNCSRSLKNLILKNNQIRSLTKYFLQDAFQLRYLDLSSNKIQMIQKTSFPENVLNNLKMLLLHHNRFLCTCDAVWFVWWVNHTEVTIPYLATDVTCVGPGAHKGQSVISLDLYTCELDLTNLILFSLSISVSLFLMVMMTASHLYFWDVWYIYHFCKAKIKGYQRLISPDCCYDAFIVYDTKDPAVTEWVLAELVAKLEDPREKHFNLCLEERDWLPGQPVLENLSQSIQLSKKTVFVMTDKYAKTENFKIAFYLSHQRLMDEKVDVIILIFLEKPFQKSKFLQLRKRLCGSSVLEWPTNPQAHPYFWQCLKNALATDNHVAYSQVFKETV
In words: TLR7 inhibition reporter assay (HEK-Blue cells, secreted embryonic alkaline phosphatase reporter). Particulars: HEK-Blue cells overexpressing human TLR7, stimulated with gardiquimod 7.5 μM; read-out: TLR 7 IC50. In outline:
as §1

Where [1] appears, read: HEK-Blue cells overexpressing human TLR9, stimulated with ODN2006 5 nM, 22 hour incubation, reporter readout.
The mark [2] stands for this setting: HEK-Blue cells overexpressing human TLR9, stimulated with ODN2006 5 nM, read-out: TLR 9 IC50.
Setting [3] is: HEK-Blue human TLR9 reporter cells.

Consider `COc1ccc(-c2nc3c(C)cc(C4CCN(C5CCN(CC(C)C)CC5)CC4)cc3[nH]2)cc1F` [Example 56, 2-(3-fluoro-4-methoxyphenyl)-6-(1′-isobutyl-[1,4′-bipiperidin]-4-yl)-4-methyl-1H-benzo[d]imidazole], for which the IC50 against human TLR9 (setting [1]) was 50 nM; at human TLR9 (setting [2]), 50 nM; at human TLR8, > 50000 nM; on human TLR7, 3200 nM.
For the compound `Cc1cc(-c2ccc(CN3C[C@H]4CN(C)C[C@H]4C3)c(F)c2)cc2c1nc(-c1ccc(S(C)(=O)=O)cc1)n2C` [Example 388, 6-(3-fluoro-4-((cis-5-methylhexahydropyrrolo[3,4-c]pyrrol-2(1H)-yl)methyl)phenyl)-1,4-dimethyl-2-(4-(methylsulfonyl)phenyl)-1H-benzo[d]imidazole], the IC50 at human TLR9 (setting [1]) came to 230 nM; on human TLR9 (setting [2]), 227 nM; at human TLR8 it was 3200 nM; on human TLR7, 400 nM.
Turning to `Cn1c(-c2ccc(S(C)(=O)=O)cc2)nc2cc(C3CCN(C4CC5CCC(C4)N5CC4CC4)CC3)c(F)cc21` (single isomer, unassigned) [Example 250, 5-(1-(8-(cyclopropylmethyl)-8-azabicyclo[3.2.1]octan-3-yl)piperidin-4-yl)-6-fluoro-1-methyl-2-(4-(methylsulfonyl)phenyl)-1H-benzo[d]imidazole], the IC50 against human TLR9 was 110 nM; at human TLR9 (setting [2]) it was 110 nM; on human TLR8 it was > 50000 nM; at human TLR7, 36700 nM.
As to `CC(C)CN1CCCC(N2CCC(c3ccc4nc(-c5ccc(S(C)(=O)=O)cc5)n(C)c4c3F)CC2)CC1` (stereo not drawn) [Example 311, 7-fluoro-6-(1-(1-isobutylazepan-4-yl)piperidin-4-yl)-1-methyl-2-(4-(methylsulfonyl)phenyl)-1H-benzo[d]imidazole], the IC50 was 72 nM on human TLR9 (setting [2]), 72 nM at human TLR9 (setting [3]), > 50000 nM at human TLR8 and > 50000 nM at human TLR7.
For `Cn1c(-c2ccc(S(C)(=O)=O)cc2)nc2cc(C3CCN(C4CC5CCC(C4)N5C4CCOCC4)CC3)c(F)cc21` (single isomer, unassigned) [Example 256, 6-fluoro-1-methyl-2-(4-(methylsulfonyl)phenyl)-5-(1-(8-(tetrahydro-2H-pyran-4-yl)-8-azabicyclo[3.2.1]octan-3-yl)piperidin-4-yl)-1H-benzo[d]imidazole], the IC50 at human TLR9 was 320 nM; on human TLR9 (setting [2]) it was 315 nM; at human TLR8, > 50000 nM; at human TLR7, 17600 nM.
Regarding `CC(C)N1C2CCC1CC(N1CCC(c3cc4c(cc3F)nc(-c3ccc(S(C)(=O)=O)cc3)n4C)CC1)C2` (single isomer, unassigned) [Example 97, 5-fluoro-6-(1-(8-isopropyl-8-azabicyclo[3.2.1]octan-3-yl)piperidin-4-yl)-1-methyl-2-(4-(methylsulfonyl)phenyl)-1H-benzo[d]imidazole], the IC50 is 79 nM on human TLR9 (setting [1]), > 50000 nM at human TLR8 and 47000 nM at human TLR7.
As to `Cc1cc(-c2ccc(CN3CCC(N4CCC4)CC3)c(F)c2)cc2c1nc(-c1ccc(S(C)(=O)=O)cc1)n2C` [Example 403, 6-(4-((4-(azetidin-1-yl)piperidin-1-yl)methyl)-3-fluorophenyl)-1,4-dimethyl-2-(4-(methylsulfonyl)phenyl)-1H-benzo[d]imidazole], the IC50 came to 81 nM against human TLR9 (setting [1]), 94 nM at human TLR9 (setting [2]), 15800 nM at human TLR8 and 300 nM at human TLR7.
The like results for `Cc1cc(-c2ccc(CN3CC4(C3)CN(C(C)C)C4)c(F)c2)cc2c1nc(-c1ccc(S(C)(=O)=O)cc1)n2C` [Example 404, 6-(3-fluoro-4-((6-isopropyl-2,6-diazaspiro[3.3]heptan-2-yl)methyl)phenyl)-1,4-dimethyl-2-(4-(methylsulfonyl)phenyl)-1H-benzo[d]imidazole] were, in that order, 69 nM, 69 nM, 7200 nM and 100 nM.
Consider `COc1cc(-c2nc3c(C)cc(C4CCN(C5CC6CCC(C5)N6CC(C)C)CC4)cc3[nH]2)cn2ncnc12` (stereo not drawn) [Example 359, 6-(6-(1-(8-isobutyl-8-azabicyclo[3.2.1]octan-3-yl)piperidin-4-yl)-4-methyl-1H-benzo[d]imidazol-2-yl)-8-methoxy-[1,2,4]triazolo[1,5-a]pyridine], for which the IC50 was found to be 76 nM at human TLR9 (setting [2]), 76 nM against human TLR9 (setting [3]), 14900 nM on human TLR8 and 2900 nM at human TLR7.
On to `CN(C)C1CCN(Cc2ccc(-c3ccc4nc(-c5ccc(C#N)cc5)n(C)c4c3)cc2)CC1` [Example 383, 4-(6-(4-((4-(dimethylamino)piperidin-1-yl)methyl)phenyl)-1-methyl-1H-benzo[d]imidazol-2-yl)benzonitrile], for which the IC50 on human TLR9 (setting [1]) worked out at 68 nM; on human TLR9 (setting [2]), 68 nM; at human TLR8, 2300 nM; at human TLR7, 2200 nM.
